Results as given in patent US10463772B2, “Prostaglandin and prostamide drug delivery systems and intraocular therapeutic uses thereof” (ALLERGAN, INC., priority 2008, dated 2019).

Columns and labels:
[1] = Heat stability of latanoprost (biological activity); format: physicochemical; details: on heating
[2] = cited from earlier work

Temperature above which latanoprost begins to lose biological activity [1]: about 56 °C
SMILES: CC(C)OC(=O)CCC/C=C\C[C@@H]1[C@@H](CC[C@@H](O)CCc2ccccc2)[C@H](O)C[C@@H]1O [latanoprost]
Solubility in acetone, ethanol, ethyl acetate, isopropanol, methanol and octanol [2]: freely soluble | Solubility in acetonitrile [2]: very soluble | Solubility in water [2]: practically insoluble
